Measured values as given in patent US20250163066A1, “PROTACs of MALT1” (TEGID THERAPEUTICS, INC., priority 2022, published 2025).

Each compound was assayed against MALT1 (Homo sapiens (Human), UniProt Q9UDY8) (assay: MALT1 enzymatic activity inhibition (fluorescence, Ac-LRSR-AMC substrate)). Conditions: recombinant MALT1 1.5 ng/μl, Ac-LRSR-AMC 1 μM.
Type: biochemical
Method in brief: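 Recombinant human MALT1 (1.5 ng/μl final) preincubated 10 min at rt with compounds in 50 mM HEPES pH 7.2-7.4, 100 mM NaCl, 900 mM sodium citrate, 10 mM DTT; 1 μM Ac-LRSR-AMC then added. AMC fluorescence read at start and after 30 min 37 °C plus 30 min rt; difference gives signal, % inhibition fitted to IC50.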

Chain of MALT1 (Q9UDY8 whole entry): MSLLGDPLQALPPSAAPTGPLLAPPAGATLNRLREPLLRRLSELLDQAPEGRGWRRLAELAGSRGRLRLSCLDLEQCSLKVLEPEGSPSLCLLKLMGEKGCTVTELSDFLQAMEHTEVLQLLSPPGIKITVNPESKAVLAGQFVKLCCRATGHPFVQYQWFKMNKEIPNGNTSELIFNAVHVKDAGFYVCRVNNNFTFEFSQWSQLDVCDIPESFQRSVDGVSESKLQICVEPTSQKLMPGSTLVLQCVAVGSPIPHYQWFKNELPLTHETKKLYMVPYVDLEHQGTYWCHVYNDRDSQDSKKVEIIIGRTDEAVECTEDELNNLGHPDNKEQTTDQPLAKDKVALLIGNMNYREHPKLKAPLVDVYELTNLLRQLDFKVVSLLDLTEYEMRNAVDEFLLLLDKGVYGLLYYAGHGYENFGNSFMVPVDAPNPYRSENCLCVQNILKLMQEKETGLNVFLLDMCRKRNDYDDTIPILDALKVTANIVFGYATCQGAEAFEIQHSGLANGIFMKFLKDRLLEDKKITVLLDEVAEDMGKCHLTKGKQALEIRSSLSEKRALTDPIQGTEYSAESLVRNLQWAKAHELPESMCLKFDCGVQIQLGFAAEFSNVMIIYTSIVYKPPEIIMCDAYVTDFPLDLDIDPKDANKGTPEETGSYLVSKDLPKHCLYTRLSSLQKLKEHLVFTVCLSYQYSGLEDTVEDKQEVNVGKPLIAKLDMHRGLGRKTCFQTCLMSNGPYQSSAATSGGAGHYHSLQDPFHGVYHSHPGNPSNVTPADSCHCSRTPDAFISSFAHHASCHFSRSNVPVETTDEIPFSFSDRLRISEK

EC50	SMILES
0.2 to 0.5 µM	Cc1cc(NC(=O)Nc2cnc3ccnn3c2C2CCCCC2)cnc1-c1noc(CCCCCN2CCN(c3ccc4c(c3)CN(C3CCC(=O)NC3=O)C4=O)CC2)n1 (centres unmarked) [Compound 132, 1-(7-cyclohexylpyrazolo[1,5-a]pyrimidin-6-yl)-3-[6-[5-[5-[4-[2-(2,6-dioxo-3-piperidyl)-1-oxo-isoindolin-5-yl]piperazin-1-yl]pentyl]-1,2,4-oxadiazol-3-yl]-5-methyl-3-pyridyl]urea]
≤ 0.2 µM	O=C1CCC(N2Cc3cc(N4CCN(CCCCCCc5nc(-c6ncc(NC(=O)Nc7cnc8ccnn8c7C7CCCC7)cc6C(F)(F)F)no5)CC4)ccc3C2=O)C(=O)N1 (centres unmarked) [Compound 133, 1-(7-cyclopentylpyrazolo[1,5-a]pyrimidin-6-yl)-3-[6-[5-[6-[4-[2-(2,6-dioxo-3-piperidyl)-1-oxo-isoindolin-5-yl]piperazin-1-yl]hexyl]-1,2,4-oxadiazol-3-yl]-5-(trifluoromethyl)-3-pyridyl]urea]
≤ 0.2 µM	CC(C)(C)C(=O)OCN1C(=O)CCC(N2Cc3cc(N4CCN(C(=O)CCCCc5nc(-c6ncc(NC(=O)Nc7cnc8ccnn8c7C7CCCC7)cc6Cl)no5)CC4)ccc3C2=O)C1=O (centres unmarked) [Compound 134, [3-[5-[4-[5-[3-[3-chloro-5-[(7-cyclopentylpyrazolo[1,5-a]pyrimidin-6-yl)carbamoylamino]-2-pyridyl]-1,2,4-oxadiazol-5-yl]pentanoyl]piperazin-1-yl]-1-oxo-isoindolin-2-yl]-2,6-dioxo-1-piperidyl]methyl 2,2-dimethylpropanoate]
≤ 0.2 µM	CC(C)c1c(NC(=O)Nc2cnc(-c3noc(CCCC(=O)N4CCN(c5ccc6c(c5)CN(C5CCC(=O)N(C)C5=O)C6=O)CC4)n3)c(Cl)c2)cnc2ccnn12 (centres unmarked) [Compound 135, 1-[5-chloro-6-[5-[4-[4-[2-(1-methyl-2,6-dioxo-3-piperidyl)-1-oxo-isoindolin-5-yl]piperazin-1-yl]-4-oxo-butyl]-1,2,4-oxadiazol-3-yl]-3-pyridyl]-3-(7-isopropylpyrazolo[1,5-a]pyrimidin-6-yl)urea]
≤ 0.2 µM	CC(C)c1c(NC(=O)Nc2cnc(-c3noc(CCCCC(=O)N4CCN(c5ccc6c(c5)CN(C5CCC(=O)N(C)C5=O)C6=O)CC4)n3)c(Cl)c2)cnc2ccnn12 (centres unmarked) [Compound 136, 1-[5-chloro-6-[5-[5-[4-[2-(1-methyl-2,6-dioxo-3-piperidyl)-1-oxo-isoindolin-5-yl]piperazin-1-yl]-5-oxo-pentyl]-1,2,4-oxadiazol-3-yl]-3-pyridyl]-3-(7-isopropylpyrazolo[1,5-a]pyrimidin-6-yl)urea]
≤ 0.2 µM	CC(C)c1c(NC(=O)Nc2cnc(-c3noc(CCCC(=O)N4CCN(c5ccc6c(c5)CN(C5CCC(=O)N(COC(=O)C(C)(C)C)C5=O)C6=O)CC4)n3)c(Cl)c2)cnc2ccnn12 (centres unmarked) [Compound 137, [3-[5-[4-[4-[3-[3-chloro-5-[(7-isopropylpyrazolo[1,5-a]pyrimidin-6-yl)carbamoylamino]-2-pyridyl]-1,2,4-oxadiazol-5-yl]butanoyl]piperazin-1-yl]-1-oxo-isoindolin-2-yl]-2,6-dioxo-1-piperidyl]methyl 2,2-dimethylpropanoate]
≤ 0.2 µM	CC(C)c1c(NC(=O)Nc2cnc(-c3noc(CCCCC(=O)N4CCN(c5ccc6c(c5)CN(C5CCC(=O)N(COC(=O)C(C)(C)C)C5=O)C6=O)CC4)n3)c(Cl)c2)cnc2ccnn12 (centres unmarked) [Compound 138, [3-[5-[4-[5-[3-[3-chloro-5-[(7-isopropylpyrazolo[1,5-a]pyrimidin-6-yl)carbamoylamino]-2-pyridyl]-1,2,4-oxadiazol-5-yl]pentanoyl]piperazin-1-yl]-1-oxo-isoindolin-2-yl]-2,6-dioxo-1-piperidyl]methyl 2,2-dimethylpropanoate]
≤ 0.2 µM	CC(C)c1c(NC(=O)Nc2cnc(-c3noc(CCCCC(=O)N4CCN(c5ccc6c(c5)CN(C5CCC(=O)NC5=O)C6=O)CC4)n3)c(Cl)c2)cnc2ccnn12 (centres unmarked) [Compound 139, 1-[5-chloro-6-[5-[5-[4-[2-(2,6-dioxo-3-piperidyl)-1-oxo-isoindolin-5-yl]piperazin-1-yl]-5-oxo-pentyl]-1,2,4-oxadiazol-3-yl]-3-pyridyl]-3-(7-isopropylpyrazolo[1,5-a]pyrimidin-6-yl)urea]
≤ 0.2 µM	CC(C)c1c(NC(=O)Nc2cnc(-c3noc(CCCC(=O)N4CCN(c5ccc6c(c5)CN(C5CCC(=O)NC5=O)C6=O)CC4)n3)c(Cl)c2)cnc2ccnn12 (centres unmarked) [Compound 140, 1-[5-chloro-6-[5-[4-[4-[2-(2,6-dioxo-3-piperidyl)-1-oxo-isoindolin-5-yl]piperazin-1-yl]-4-oxo-butyl]-1,2,4-oxadiazol-3-yl]-3-pyridyl]-3-(7-isopropylpyrazolo[1,5-a]pyrimidin-6-yl)urea]
0.2 to 0.5 µM	Cc1cc(NC(=O)Nc2cnc3ccnn3c2C2CCCCC2)cnc1-c1noc(CCCCN2CCN(c3ccc4c(c3)CN(C3CCC(=O)NC3=O)C4=O)CC2)n1 (centres unmarked) [Compound 141, 1-(7-cyclohexylpyrazolo[1,5-a]pyrimidin-6-yl)-3-[6-[5-[4-[4-[2-(2,6-dioxo-3-piperidyl)-1-oxo-isoindolin-5-yl]piperazin-1-yl]butyl]-1,2,4-oxadiazol-3-yl]-5-methyl-3-pyridyl]urea]
1 to 5 µM	CC(C)c1c(NC(=O)Nc2ccc(-c3nnc(CCCCCCN4CCN(c5ccc6c(c5)CN(C5CCC(=O)NC5=O)C6=O)CC4)s3)nc2)cnc2ccnn12 (centres unmarked) [Compound 142, 1-[6-[5-[6-[4-[2-(2,6-dioxo-3-piperidyl)-1-oxo-isoindolin-5-yl]piperazin-1-yl]hexyl]-1,3,4-thiadiazol-2-yl]-3-pyridyl]-3-(7-isopropylpyrazolo[1,5-a]pyrimidin-6-yl)urea]
1 to 5 µM	O=C1CCC(N2Cc3cc(N4CCN(CCCCCCc5nnc(-c6ccc(NC(=O)Nc7cnc8ccnn8c7C7CCCC7)cn6)s5)CC4)ccc3C2=O)C(=O)N1 (centres unmarked) [Compound 143, 1-(7-cyclopentylpyrazolo[1,5-a]pyrimidin-6-yl)-3-[6-[5-[6-[4-[2-(2,6-dioxo-3-piperidyl)-1-oxo-isoindolin-5-yl]piperazin-1-yl]hexyl]-1,3,4-thiadiazol-2-yl]-3-pyridyl]urea]
≤ 0.2 µM	Cc1cc(NC(=O)Nc2cnc3ccnn3c2C(C)C)cnc1-c1noc(CCCC(=O)N2CCN(c3ccc4c(c3)CN(C3CCC(=O)N(C)C3=O)C4=O)CC2)n1 (centres unmarked) [Compound 144, 1-(7-isopropylpyrazolo[1,5-a]pyrimidin-6-yl)-3-[5-methyl-6-[5-[4-[4-[2-(1-methyl-2,6-dioxo-3-piperidyl)-1-oxo-isoindolin-5-yl]piperazin-1-yl]-4-oxo-butyl]-1,2,4-oxadiazol-3-yl]-3-pyridyl]urea]
≤ 0.2 µM	Cc1cc(NC(=O)Nc2cnc3ccnn3c2C(C)C)cnc1-c1noc(CCCCC(=O)N2CCN(c3ccc4c(c3)CN(C3CCC(=O)N(C)C3=O)C4=O)CC2)n1 (centres unmarked) [Compound 145, 1-(7-isopropylpyrazolo[1,5-a]pyrimidin-6-yl)-3-[5-methyl-6-[5-[5-[4-[2-(1-methyl-2,6-dioxo-3-piperidyl)-1-oxo-isoindolin-5-yl]piperazin-1-yl]-5-oxo-pentyl]-1,2,4-oxadiazol-3-yl]-3-pyridyl]urea]
≤ 0.2 µM	Cc1cc(NC(=O)Nc2cnc3ccnn3c2C(C)C)cnc1-c1noc(CCCCCC(=O)N2CCN(c3ccc4c(c3)CN(C3CCC(=O)N(C)C3=O)C4=O)CC2)n1 (centres unmarked) [Compound 146, 1-(7-isopropylpyrazolo[1,5-a]pyrimidin-6-yl)-3-[5-methyl-6-[5-[6-[4-[2-(1-methyl-2,6-dioxo-3-piperidyl)-1-oxo-isoindolin-5-yl]piperazin-1-yl]-6-oxo-hexyl]-1,2,4-oxadiazol-3-yl]-3-pyridyl]urea]
≤ 0.2 µM	CCCCOP(=O)(OCCCC)OCN1C(=O)CCC(N2Cc3cc(N4CCN(C(=O)CCCCc5nc(-c6ncc(NC(=O)Nc7cnc8ccnn8c7C(C)C)cc6C)no5)CC4)ccc3C2=O)C1=O (centres unmarked) [Compound 147, dibutyl [3-[5-[4-[5-[3-[5-[(7-isopropylpyrazolo[1,5-a]pyrimidin-6-yl)carbamoylamino]-3-methyl-2-pyridyl]-1,2,4-oxadiazol-5-yl]pentanoyl]piperazin-1-yl]-1-oxo-isoindolin-2-yl]-2,6-dioxo-1-piperidyl]methyl phosphate]
0.5 to 1 µM	CCCCOP(=O)(OCCCC)OCN1C(=O)CCC(N2Cc3cc(N4CCN(C(=O)CCCCCc5nc(-c6ncc(NC(=O)Nc7cnc8ccnn8c7C(C)C)cc6C)no5)CC4)ccc3C2=O)C1=O (centres unmarked) [Compound 148, dibutyl [3-[5-[4-[6-[3-[5-[(7-isopropylpyrazolo[1,5-a]pyrimidin-6-yl)carbamoylamino]-3-methyl-2-pyridyl]-1,2,4-oxadiazol-5-yl]hexanoyl]piperazin-1-yl]-1-oxo-isoindolin-2-yl]-2,6-dioxo-1-piperidyl]methyl phosphate]
≤ 0.2 µM	Cc1cc(NC(=O)Nc2cnc3ccnn3c2C(C)C)cnc1-c1noc(CCCC(=O)N2CCN(c3ccc4c(c3)CN(C3CCC(=O)N(COC(=O)C(C)(C)C)C3=O)C4=O)CC2)n1 (centres unmarked) [Compound 149, [3-[5-[4-[4-[3-[5-[(7-isopropylpyrazolo[1,5-a]pyrimidin-6-yl)carbamoylamino]-3-methyl-2-pyridyl]-1,2,4-oxadiazol-5-yl]butanoyl]piperazin-1-yl]-1-oxo-isoindolin-2-yl]-2,6-dioxo-1-piperidyl]methyl 2,2-dimethylpropanoate]
1 to 5 µM	Cc1cc(NC(=O)Nc2cnc3ccnn3c2C(C)(C)C)cnc1-c1noc(CCCCCN2CCN(c3ccc4c(c3)CN(C3CCC(=O)NC3=O)C4=O)CC2)n1 (centres unmarked) [Compound 150, 1-(7-tert-butylpyrazolo[1,5-a]pyrimidin-6-yl)-3-[6-[5-[5-[4-[2-(2,6-dioxo-3-piperidyl)-1-oxo-isoindolin-5-yl]piperazin-1-yl]pentyl]-1,2,4-oxadiazol-3-yl]-5-methyl-3-pyridyl]urea]
1 to 5 µM	O=C1CCC(N2Cc3cc(N4CCN(C(=O)CCCCn5cc(NC(=O)Nc6cnc7ccnn7c6C6CCCC6)c(C(F)(F)F)n5)CC4)ccc3C2=O)C(=O)N1 (centres unmarked) [Compound 151, 1-(7-cyclopentylpyrazolo[1,5-a]pyrimidin-6-yl)-3-[1-[5-[4-[2-(2,6-dioxo-3-piperidyl)-1-oxo-isoindolin-5-yl]piperazin-1-yl]-5-oxo-pentyl]-3-(trifluoromethyl)pyrazol-4-yl]urea]
